Columns and labels:
Mus musculus = experiment: Analgesic activity in Mus musculus Swiss albino (mouse) assessed as inhibition of acetic acid-induced writhing at 50 mg/kg, po administered 30 min prior to acetic acid challenge measured at 5 to 15 min relative to untreated control; assay type: functional
Rattus norvegicus = experiment: Anti-inflammatory activity against Rattus norvegicus Wistar (rat) assessed as inhibition of carrageenan-induced paw edema at 10 mg/kg, po administered 30 min prior to carrageenan challenge measured at 120 min by plethysmometeric analysis relative to untreated control; assay type: functional

| SMILES | inhibition in vivo at 50 mg/kg (Mus musculus) [%] | inhibition in vivo at 10 mg/kg (Rattus norvegicus) [%] |
| --- | --- | --- |
| Cc1ccccc1/N=C1/NC(=O)/C(=C/c2ccccn2)S1 | 43.6 | 30.4 |
| O=C1N/C(=N\Nc2ccc([N+](=O)[O-])cc2[N+](=O)[O-])S/C1=C\c1ccccn1 | 68.7 | 56.5 |
| O=C1N/C(=N/c2ccccc2Cl)S/C1=C\c1ccccn1 | 36.2 | 26.2 |
| O=C1N/C(=N/c2ccc(Br)cc2)S/C1=C\c1ccccn1 | 28.7 | 30.4 |
| O=C1N/C(=N/c2ccc([N+](=O)[O-])cc2Cl)S/C1=C\c1ccccn1 | 37.4 | 39.7 |
| O=C1N/C(=N/c2ccc(F)cc2)S/C1=C\c1ccccn1 | 43.2 | 34.7 |
| O=C1N/C(=N\c2ccccc2[N+](=O)[O-])S/C1=C/c1ccccn1 | 36.7 | 34.8 |
| O=C(O)Cc1ccccc1Nc1c(Cl)cccc1Cl [DICLOFENAC SODIUM] | 60.2 | 43.5 |
| O=C1N/C(=N\Nc2ccccc2)S/C1=C\c1ccccn1 | 46.2 | 39.7 |
| Cc1ccc(/N=C2/NC(=O)/C(=C/c3ccccn3)S2)cc1 | 43.2 | 43.8 |
| O=C1N/C(=N/c2cccc([N+](=O)[O-])c2)S/C1=C\c1ccccn1 | 62.3 | 43.5 |
| COc1ccc(/N=C2\NC(=O)/C(=C/c3ccccn3)S2)cc1 | 42.4 | 39.1 |
| O=C1N/C(=N/c2ccc(Cl)cc2)S/C1=C\c1ccccn1 | 41.7 | 34.8 |
| O=C1N/C(=N/c2ccccc2)S/C1=C\c1ccccn1 | 29.2 | 26.2 |
| Cc1cccc(C)c1/N=C1/NC(=O)/C(=C/c2ccccn2)S1 | 51.5 | 39.7 |
| Cc1cccc(/N=C2/NC(=O)/C(=C/c3ccccn3)S2)c1 | 52.3 | 39.7 |
